Measurements: US20260226084A1, “DUAL RAF AND TUBULIN INHIBITORS AND METHODS OF USE THEREOF” (Deciphera Pharmaceuticals, LLC, priority 2023, published 2026)

What was measured:
[1] = system: HPAF-II cells; assay: HPAF-II Cell Proliferation Assay; type: cell-based; conditions: Homo sapiens, HPAF-II, HPAF-II cells; Table 2; read-out: Inhibition of cell proliferation in HPAF-II (IC50 class)
In short: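 HPAF-II cells (750/well) in complete MEM with 10% FBS were exposed to serially diluted compound in triplicate for 115–120 h at 37 °C, 5% CO2. Resazurin was then added for 18–24 h more; fluorescence (ex 540/em 600 nm) gave IC50.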

[2] = molecular target: T1, C-Raf kinase (SEQ ID NO: 2) (Homo sapiens, UniProt P04049, Y340D/Y341D); assay: Biochemical Assay for C-Raf (coupled pyruvate kinase/lactate dehydrogenase assay); conditions: 1 mM ATP; read-out: CRAF (inhibition of biochemical activity, IC50)
T1 construct: C-Raf residues 306-end; Y340D, Y341D with; GST (N); purchased Sigma

[3] = system: Pa16c cells; assay: Pa16c Cell Proliferation Assay; type: cell-based; conditions: Table 2, read-out: Inhibition of cell proliferation in Pa16c (IC50 class)
In short: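 Mouse Pa16c cells, 750/well in DMEM with 10% FBS, exposed to serially diluted compound in triplicate for 67 to 72 h at 37° C. Viability read by resazurin reduction over a further 18 to 24 h (ex 540/em 600 nm). IC50 calculated from the dose-response.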

[4] = molecular target: T2, B-Raf kinase (SEQ ID NO: 1) (Homo sapiens, UniProt P15056); assay: Biochemical Assay for B-Raf (coupled pyruvate kinase/lactate dehydrogenase assay); conditions: 1 mM ATP; read-out: BRAF (inhibition of biochemical activity, IC50)
T2 construct: GST (N); purchased Sigma

[5] = system: HCT-116 cells; assay: HCT-116 Cell Proliferation Assay; type: cell-based; conditions: Homo sapiens, HCT-116, HCT-116 cells; Table 2; read-out: Inhibition of cell proliferation in HCT-116 (IC50 class)
In short: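 HCT-116 cells, 375/well in McCoy's 5A with 10% FBS, exposed to serial compound dilutions in triplicate for 67 to 72 hours at 37 °C. Viability read by resazurin fluorescence (ex 540/em 600 nm) after a further 4 to 5 h; IC50 values calculated.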

[6] = system: MiaPaca-2 cells; assay: MiaPaca-2 Cell Proliferation Assay; type: cell-based; conditions: Homo sapiens, MIA PaCa-2, MiaPaca-2 cells; Table 2; read-out: Inhibition of cell proliferation in MiaPaca-2 (IC50 class)
In short: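 Viability was read as resazurin fluorescence (540 nm excitation, 600 nm emission) after 5–6 h with dye. Compounds were tested as serial dilutions in triplicate, with IC50 derived from the dose–response.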

T2 sequence (P15056 416-766): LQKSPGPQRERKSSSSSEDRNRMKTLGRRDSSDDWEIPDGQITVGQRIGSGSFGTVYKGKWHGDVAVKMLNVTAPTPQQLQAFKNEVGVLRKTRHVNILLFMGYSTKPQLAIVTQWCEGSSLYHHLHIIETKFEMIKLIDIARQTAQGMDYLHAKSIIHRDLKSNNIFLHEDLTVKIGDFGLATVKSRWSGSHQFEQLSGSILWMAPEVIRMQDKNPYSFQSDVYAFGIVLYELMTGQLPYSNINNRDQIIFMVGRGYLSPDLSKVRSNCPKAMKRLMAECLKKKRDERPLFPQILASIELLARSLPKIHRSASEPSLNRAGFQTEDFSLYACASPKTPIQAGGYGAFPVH
T1 sequence (P04049 307-648 Y340D/Y341D): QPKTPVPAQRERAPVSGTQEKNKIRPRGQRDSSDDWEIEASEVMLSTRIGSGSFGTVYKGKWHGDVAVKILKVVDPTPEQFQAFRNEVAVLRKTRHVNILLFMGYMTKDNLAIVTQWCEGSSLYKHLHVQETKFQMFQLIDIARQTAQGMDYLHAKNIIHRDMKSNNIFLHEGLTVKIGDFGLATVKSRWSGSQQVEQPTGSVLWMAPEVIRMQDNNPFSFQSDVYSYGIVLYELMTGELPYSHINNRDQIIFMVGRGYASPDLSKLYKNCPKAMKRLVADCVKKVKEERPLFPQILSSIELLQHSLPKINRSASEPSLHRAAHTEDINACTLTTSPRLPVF

| IC50 [2] | IC50 [4] | IC50 [5] | IC50 [6] | SMILES | IC50 [1] | IC50 [3] |
| --- | --- | --- | --- | --- | --- | --- |
| < 100 nM | < 100 nM | < 100 nM | < 100 nM | Cc1ccc(NC(=O)c2cc(C(F)(F)F)cnn2)cc1-c1ccnc(-c2ccnc(NC=O)c2)c1 [Example 110] | < 100 nM | < 100 nM |
| < 100 nM | < 100 nM | < 100 nM | 100 to 500 nM | Cc1ccc(NC(=O)c2cncc(C(C)(F)F)c2)cc1-c1cncc(-c2cc(NC(=O)C3CC3)ncn2)c1 [Example 109] | 100 to 500 nM | 1000 to 10000 nM |
| < 100 nM | < 100 nM | < 100 nM | 100 to 500 nM | Cc1ccc(NC(=O)c2cncc(C(C)(C)F)c2)cc1-c1cncc(-c2cc(NC(=O)C3CC3)ncn2)c1 [Example 68] | < 100 nM | 500 to 1000 nM |
| < 100 nM | < 100 nM | < 100 nM | < 100 nM | Cc1ccc(NC(=O)c2cc(C(F)(F)F)cnn2)cc1-c1cc(NCCO)nc(-c2ccnc(NC(=O)C3CC3)c2)c1 [Example 113] | < 100 nM | < 100 nM |
| < 100 nM | < 100 nM | < 100 nM | 100 to 500 nM | Cc1ccc(NC(=O)c2cc(C(C)(C)F)cnn2)cc1-c1cncc(-c2cc(NC(=O)C3CC3)ncn2)c1 [Example 62] | < 100 nM | 500 to 1000 nM |
| < 100 nM | < 100 nM | 1000 to 10000 nM | 1000 to 10000 nM | Cc1ccc(NC(=O)c2cncc(C(F)(F)F)n2)cc1-c1cncc(-c2ccnc(NC(=O)C3CC3)c2)c1 [Example 5] | 1000 to 10000 nM | 1000 to 10000 nM |
| < 100 nM | < 100 nM | 1000 to 10000 nM | 1000 to 10000 nM | Cc1ccc(NC(=O)c2cc(P(C)(C)=O)cnn2)cc1-c1ccnc(-c2ccnc(NC(=O)C3CC3)c2)c1 [Example 111] | 1000 to 10000 nM | 1000 to 10000 nM |
| < 100 nM | < 100 nM | 100 to 500 nM | 100 to 500 nM | CNCC(=O)Nc1cc(-c2cc(-c3cc(NC(=O)c4cc(C(C)(F)F)cnn4)ccc3C)ccn2)ccn1 [Example 112] | 100 to 500 nM | 100 to 500 nM |
| 100 to 500 nM | 100 to 500 nM | 500 to 1000 nM | 500 to 1000 nM | Cc1ccc(NC(=O)c2cc(C3CC3)cnn2)cc1-c1ccnc(-c2cnn(C)n2)c1 [Example 141] | 500 to 1000 nM | 500 to 1000 nM |
| 500 to 1000 nM | 500 to 1000 nM | 1000 to 10000 nM | 1000 to 10000 nM | Cc1ccc(NC(=O)c2cc(C#N)cnn2)cc1-c1cc(N[C@H](C)CO)nc(-c2ccnc(NC(=O)C3CC3)c2)c1 [Example 151] | 1000 to 10000 nM | 1000 to 10000 nM |
| < 100 nM | 100 to 500 nM | 100 to 500 nM | 100 to 500 nM | Cc1ccc(NC(=O)c2cc(C(C)(F)F)cnn2)cc1-c1ccnc(-c2cnn(C)c2)c1 [Example 150] | 100 to 500 nM | 500 to 1000 nM |
| 500 to 1000 nM | 500 to 1000 nM | 100 to 500 nM | 100 to 500 nM | Cc1ccc(NC(=O)c2cc(C(F)(F)F)cnn2)cc1-c1ccnc(-c2ccnc(NCC(F)(F)F)c2)c1 [Example 53] | 100 to 500 nM | 1000 to 10000 nM |
| 100 to 500 nM | 100 to 500 nM | 100 to 500 nM | 100 to 500 nM | Cc1ccc(NC(=O)c2cc(C3CC3)cnn2)cc1-c1ccnc(-c2ccoc2)c1 [Example 147] | 100 to 500 nM | 100 to 500 nM |
| 100 to 500 nM | < 100 nM | 100 to 500 nM | < 100 nM | CNc1cc(-c2cc(-c3cc(NC(=O)c4cc(C(F)(F)F)cnn4)ccc3C)ccn2)ccn1 [Example 50] | 100 to 500 nM | 100 to 500 nM |
